Experiments:
[1] = Distribution coefficient (LogD7.4), shake flask method; type: physicochemical; conditions: n-octanol / phosphate buffer 0.1 M pH 7.4; n = 3
Description: LogD7.4 values were measured using the shake flask method. Briefly, an aliquot of ^18F-labeled tracer was added to a vial containing 2.5 mL of n-octanol and 2.5 mL of phosphate buffer (0.1 M, pH 7.4). The mixture was vortexed for 2 min and then centrifuged at 3,000g for 10 min. A sample of the n-octanol (0.1 mL) and buffer (0.1 mL) layers was counted using a γ-counter. Values of LogD7.4 were calculated using the following equation: LogD7.4 = log10 [(counts in n-octanol phase)/(counts in buffer phase)].

LNCaP xenografts = assay: Ex vivo biodistribution and blocking studies in mice bearing LNCaP xenografts; conditions: for tumor uptake: LNCaP tumor
Description: Imaging and biodistribution experiments were performed using NODSCID IL2RγKO male mice. All experiments were conducted according to the guidelines established by the Canadian Council on Animal Care and approved by the Animal Ethics Committee of the University of British Columbia. Mice were anesthetized by inhalation with 2% isoflurane in oxygen and implanted subcutaneously with 1 × 10^7 LNCaP cells behind the left shoulder. The mice were imaged or used in biodistribution studies once the tumor reached 5–8 mm in diameter (5–6 wk).
For biodistribution and blocking studies, the mice were injected with 1–3 MBq of radiotracer. At 60 min, the mice were anesthetized with 2% isoflurane inhalation and euthanized by CO2 inhalation. Blood was withdrawn by cardiac puncture, and the organs and tissues of interest were collected, weighed, and counted using an automatic γ-counter (PerkinElmer). Uptake values were expressed as the percentage of the injected dose per gram of tissue (%ID/g).
A standard 1-way ANOVA was performed to determine whether statistically significant differences in tumor uptake occurred between radiotracers. Each radiotracer was compared with ^18F-DCFPyL using the Dunnett test (a many-to-one t test comparison). This analysis was also performed for kidney and blood activity and for tumor-to-blood and tumor-to-muscle ratios. Reported P values were adjusted for multiple comparisons. The analysis was performed using Prism 8 (GraphPad). […]
Statistical analyses were performed using GradPad prism 7. Multiple t tests were performed to compare biodistribution in unblocked and blocked mice, multiple comparisons were corrected using the Holm-Sidak method. The difference was considered statistically significant when p value was < 0.05.
Supplemental Table 1 – Complete biodistribution study for compounds [18F]1–3 […]
Tissue 1h 1h blocked 1h 1h blocked 1h 1h blocked
(%ID/g) n = 8 n = 4 n = 6 n = 4 n = 8 n = 5 […]
(1 picture or pasted object on this page, not shown here)

PSMA = molecular target: T1, PSMA (Homo sapiens, UniProt Q04609); assay: In vitro competition binding assay on LNCaP cells with ^18F-DCFPyL as radioligand
T1 construct: because it expresses PSMA endogenously and is commonly used to evaluate PSMA-targeting radiotracers; endogenous in cells; host or cells: LNCaP cells
T1 sequence (Q04609 whole entry): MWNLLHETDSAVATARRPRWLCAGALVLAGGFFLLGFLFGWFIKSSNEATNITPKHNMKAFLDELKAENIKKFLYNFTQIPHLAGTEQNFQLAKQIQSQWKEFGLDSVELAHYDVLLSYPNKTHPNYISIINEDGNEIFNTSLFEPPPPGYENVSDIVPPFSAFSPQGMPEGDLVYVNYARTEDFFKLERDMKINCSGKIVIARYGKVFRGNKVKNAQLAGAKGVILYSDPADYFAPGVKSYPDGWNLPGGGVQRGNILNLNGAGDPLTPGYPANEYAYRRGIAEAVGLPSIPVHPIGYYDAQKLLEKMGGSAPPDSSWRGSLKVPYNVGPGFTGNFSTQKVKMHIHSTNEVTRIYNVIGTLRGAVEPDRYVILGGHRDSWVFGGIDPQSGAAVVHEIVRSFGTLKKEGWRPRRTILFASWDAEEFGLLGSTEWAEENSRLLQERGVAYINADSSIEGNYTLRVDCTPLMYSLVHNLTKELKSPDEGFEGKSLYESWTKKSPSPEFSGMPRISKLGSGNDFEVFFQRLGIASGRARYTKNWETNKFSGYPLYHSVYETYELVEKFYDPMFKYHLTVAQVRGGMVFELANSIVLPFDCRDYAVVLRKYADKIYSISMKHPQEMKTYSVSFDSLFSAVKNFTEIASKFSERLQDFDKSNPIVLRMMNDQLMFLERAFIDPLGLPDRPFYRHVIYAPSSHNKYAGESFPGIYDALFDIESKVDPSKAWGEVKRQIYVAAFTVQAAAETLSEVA
Description: LNCaP cells were plated onto a 24-well poly-D-lysine coated plate for 48 h (400,000/well). […] Nonspecific binding was determined in the presence of 10 μM unlabeled DCFPyL. The assay mixtures were incubated for 1 h at 37°C with gentle agitation followed by 2 washes with cold HEPES buffered saline. A trypsin solution (0.25%, 400 μL) was then added to each well to harvest the cells. Radioactivity was measured by γ-counting, and Ki values were calculated using the “1 site—fit Ki” built-in model in Prism 7 (GraphPad).

[2] = 1 h after injection, 1-way ANOVA, Dunnett test
[3] = 1 h blocked (coinjection of DCFPyL 0.5 mg)

**Q.** Which logD at 2 min [1] does the source give for C[N+](C)(Cc1cn(CC(=O)NCCOCCOCCC(=O)N[C@@H](Cc2ccc3ccccc3c2)C(=O)NCCCC[C@H](NC(=O)N[C@@H](CCC(=O)O)C(=O)O)C(=O)O)nn1)C[B-](F)(F)F [^18F-7] here?
**A.** Its logD at 2 min is -3.24 ± 0.03.

**Q.** What about the “T/B (tumor-to-blood ratio)” value (LNCaP xenografts; 1 h after injection, unblocked) of the same molecule?
**A.** Its value is 54.57 ± 38.49.

**Q.** What about the “T/K (tumor-to-kidney ratio)” value (LNCaP xenografts; 1 h after injection, unblocked) of the same molecule?
**A.** The value was 0.28 ± 0.22.

**Q.** What about the “T/M (tumor-to-muscle ratio)” value (LNCaP xenografts; 1 h after injection, unblocked) of the same molecule?
**A.** Its value is 117.13 ± 52.06.

**Q.** What about the adrenal uptake (LNCaP xenografts; 1 h after injection, unblocked) of the same molecule?
**A.** Its adrenal uptake is 0.81 ± 0.25 %ID/g.

**Q.** And the blood uptake (LNCaP xenografts; 1 h after injection, unblocked)?
**A.** Its blood uptake is 0.13 ± 0.08 %ID/g.

**Q.** What about the bone uptake (LNCaP xenografts; 1 h after injection, unblocked) of the same molecule?
**A.** The bone uptake was 0.10 ± 0.07 %ID/g.

**Q.** What about the brain uptake (LNCaP xenografts; 1 h after injection, unblocked) of the same molecule?
**A.** Its brain uptake is 0.01 ± 0.01 %ID/g.

**Q.** And the fat uptake (LNCaP xenografts; 1 h after injection, unblocked)?
**A.** The fat uptake was 0.27 ± 0.14 %ID/g.

**Q.** What about the heart uptake (LNCaP xenografts; 1 h after injection, unblocked) of the same molecule?
**A.** The heart uptake was 0.07 ± 0.02 %ID/g.

**Q.** And the intestine uptake (LNCaP xenografts; 1 h after injection, unblocked)?
**A.** The intestine uptake was 22.24 ± 2.79 %ID/g.

**Q.** And the kidney uptake (LNCaP xenografts; 1 h after injection, unblocked)?
**A.** Its kidney uptake is 20.35 ± 9.85 %ID/g.

**Q.** What about the liver uptake (LNCaP xenografts; 1 h after injection, unblocked) of the same molecule?
**A.** Its liver uptake is 0.83 ± 0.34 %ID/g.

**Q.** And the lung uptake (LNCaP xenografts; 1 h after injection, unblocked)?
**A.** Its lung uptake is 0.40 ± 0.13 %ID/g.

**Q.** And the muscle uptake (LNCaP xenografts; 1 h after injection, unblocked)?
**A.** Its muscle uptake is 0.05 ± 0.01 %ID/g.

**Q.** And the pancreas uptake (LNCaP xenografts; 1 h after injection, unblocked)?
**A.** Its pancreas uptake is 0.13 ± 0.11 %ID/g.

**Q.** And the spleen uptake (LNCaP xenografts; 1 h after injection, unblocked)?
**A.** The spleen uptake was 0.75 ± 0.36 %ID/g.

**Q.** What about the stomach uptake (LNCaP xenografts; 1 h after injection, unblocked) of the same molecule?
**A.** The stomach uptake was 0.21 ± 0.12 %ID/g.

**Q.** What about the testes uptake (LNCaP xenografts; 1 h after injection, unblocked) of the same molecule?
**A.** The testes uptake was 0.18 ± 0.05 %ID/g.

**Q.** What about the “kidney accumulation compared with ^18F-DCFPyL” value (LNCaP xenografts; [2]) of the same molecule?
**A.** Its value is “lower kidney accumulation”.

**Q.** What about the “tumor uptake compared with ^18F-DCFPyL” value (LNCaP xenografts; [2]) of the same molecule?
**A.** The value was “lower tumor uptake than ^18F-DCFPyL”.

**Q.** What about the “tumor-to-blood and tumor-to-muscle ratios compared with ^18F-DCFPyL” value (LNCaP xenografts; [2]) of the same molecule?
**A.** Its value is “higher ratios”.

**Q.** What about the “T/B (tumor-to-blood ratio)” value (LNCaP xenografts; [3]) of the same molecule?
**A.** The value was 1.56 ± 0.87.

**Q.** And the “T/K (tumor-to-kidney ratio)” value (LNCaP xenografts; [3])?
**A.** The value was 0.28 ± 0.12.

**Q.** And the “T/M (tumor-to-muscle ratio)” value (LNCaP xenografts; [3])?
**A.** Its value is 3.62 ± 3.62.

**Q.** What about the adrenal uptake (LNCaP xenografts; [3]) of the same molecule?
**A.** Its adrenal uptake is 0.06 ± 0.09 %ID/g.

**Q.** What about the blood uptake (LNCaP xenografts; [3]) of the same molecule?
**A.** The blood uptake was 0.85 ± 1.37 %ID/g.

**Q.** And the bone uptake (LNCaP xenografts; [3])?
**A.** The bone uptake was 0.16 ± 0.25 %ID/g.

**Q.** And the brain uptake (LNCaP xenografts; [3])?
**A.** The brain uptake was 0.01 ± 0.01 %ID/g.

**Q.** What about the fat uptake (LNCaP xenografts; [3]) of the same molecule?
**A.** Its fat uptake is 0.02 ± 0.02 %ID/g.

**Q.** What about the heart uptake (LNCaP xenografts; [3]) of the same molecule?
**A.** Its heart uptake is 0.04 ± 0.01 %ID/g.

**Q.** What about the intestine uptake (LNCaP xenografts; [3]) of the same molecule?
**A.** The intestine uptake was 26.68 ± 9.98 %ID/g.

**Q.** And the kidney uptake (LNCaP xenografts; [3])?
**A.** Its kidney uptake is 0.56 ± 0.18 %ID/g.

**Q.** What about the liver uptake (LNCaP xenografts; [3]) of the same molecule?
**A.** The liver uptake was 0.73 ± 0.21 %ID/g.

**Q.** What about the lung uptake (LNCaP xenografts; [3]) of the same molecule?
**A.** Its lung uptake is 0.12 ± 0.04 %ID/g.

**Q.** And the muscle uptake (LNCaP xenografts; [3])?
**A.** The muscle uptake was 0.24 ± 0.37 %ID/g.

**Q.** What about the pancreas uptake (LNCaP xenografts; [3]) of the same molecule?
**A.** The pancreas uptake was 0.06 ± 0.06 %ID/g.

**Q.** And the spleen uptake (LNCaP xenografts; [3])?
**A.** Its spleen uptake is 0.15 ± 0.16 %ID/g.

**Q.** And the stomach uptake (LNCaP xenografts; [3])?
**A.** Its stomach uptake is 1.55 ± 2.10 %ID/g.

**Q.** What about the testes uptake (LNCaP xenografts; [3]) of the same molecule?
**A.** The testes uptake was 0.04 ± 0.01 %ID/g.

**Q.** And the tumor uptake (LNCaP xenografts; 1 h after injection, unblocked, listed as 7)?
**A.** The tumor uptake was 5.1 ± 1.1 %ID/g.

**Q.** And the tumor uptake (LNCaP xenografts; 1 h after injection, unblocked, listed as [18F]7)?
**A.** The tumor uptake was 5.09 ± 1.10 %ID/g.

**Q.** What about the tumor uptake (LNCaP xenografts; [3]) of the same molecule?
**A.** Its tumor uptake is 0.15 ± 0.06 %ID/g.

**Q.** And the Ki (PSMA)?
**A.** The Ki was 16.5 ± 5.5 nM.

Source: publication PMC6681697, “One-Step ^18F-Labeling and Preclinical Evaluation of Prostate-Specific Membrane Antigen Trifluoroborate Probes for Cancer Imaging” (Journal of Nuclear Medicine, 2019)
